ChEMBL document CHEMBL4616670, “Phosphine Oxides from a Medicinal Chemist's Perspective: Physicochemical and in Vitro Parameters Relevant for Drug Discovery” (J Med Chem, 2020)
≈ marks a conversion by molar mass, not a printed value.

Legend:
[1] = in vitro; details: human, Caco-2
Description: Efflux ratio of permeability in human Caco2 cells measured up to 2 hrs by LC-MS/MS analysis or scintillation counting method

[2] = in vitro; details: human, Caco-2; remark: listed apart in the source
Description: Permeability across apical to basolateral side in human Caco2 cells measured up to 2 hrs by LC-MS/MS analysis or scintillation counting method

[3] = physchem; details: pH 6.8 buffer
[4] = physchem; details: octanol/water, pH 2
Description: Octanol/water partition coefficient, log D of the compound at pH 2

[5] = physchem; details: pH 6.8 buffer; remark: listed apart in the source
[6] = in vitro; details: human, liver microsomes
Description: Stability in human liver microsomes at 1 uM incubated prior to NADPH addition by LC-MS/MS analysis relative to hepatic blood flow

[7] = in vitro; details: human, liver microsomes; remark: listed apart in the source
Description: Half life in human liver microsomes at 1 uM incubated prior to NADPH addition by LC-MS/MS analysis

[8] = physchem; details: octanol/water, pH 11
Description: Octanol/water partition coefficient, log D of the compound at pH 11

[9] = physchem; details: MeOH/HCl solution
Description: Chemical stability of the compound in MeOH/HCl solution at pH <1 assessed as compound decomposition measured after 7 days by UV-RP-HPLC analysis

[10] = 168 h
Description: Chemical stability of the compound in MeOH/NH3 solution at pH >10 assessed as compound decomposition measured after 7 days by UV-RP-HPLC analysis

[11] = Basic dissociation constant, pKb of the compound by UV absorption spectra analysis or potentiometric titration technique; assay type: physicochemical

| efflux ratio at 2 h [1] | Papp A→B at 2 h [2] [×10⁻⁶ cm/s] | solubility thermodynamic at 24 h [3] [µg/mL] | logD [4] | solubility thermodynamic at 24 h [5] [µg/mL] | hepatic extraction ratio at 1 µM [6] | half-life at 1 µM [7] [h] | logD [8] | degraded at 168 h [9] [%] | Drug degradation [10] [%] | pKb [11] | Structure (SMILES) |
| --- | --- | --- | --- | --- | --- | --- | --- | --- | --- | --- | --- |
| 1 | 68 | > 44 | 1.5 | 300 (≈ 1590 µM) |  |  |  |  |  |  | NC(=O)c1ccc(C(F)(F)F)cc1 |
|  |  | 7 (≈ 28.4 µM) |  | 20 (≈ 81.2 µM) |  |  |  |  |  |  | CC(C)(C)OC(=O)c1ccc(C(F)(F)F)cc1 |
| 8.1 | 3 | < 1 | 0.4 |  | 0.25 | 1.95 | 1.5 |  |  |  | Cc1ccc(NC(=O)c2ccc(C(N)=O)cc2)cc1Nc1nccc(-c2cccnc2)n1 |
| 0.5 | 110 | > 61 | 3.1 | 22200 (≈ 79800 µM) | < 0.23 | > 2.17 | 2.8 | < 10 | < 10 |  | CC(C)P(=O)(c1ccc(C(F)(F)F)cc1)C(C)C |
| 0.6 | 83 | > 48 |  | 800 (≈ 3550 µM) |  |  |  |  |  |  | NS(=O)(=O)c1ccc(C(F)(F)F)cc1 |
|  |  | > 47 |  | 300 (≈ 1340 µM) |  |  |  |  |  |  | CS(=O)(=O)c1ccc(C(F)(F)F)cc1 |
| 0.5 | 81 | > 57 | 0.7 | 1200 (≈ 4760 µM) |  |  | 1.8 |  |  |  | CN=S(=O)(NC)c1ccc(C(F)(F)F)cc1 (stereo unspecified) |
| 0.9 | 70 | > 54 | 0.8 | 6900 (≈ 29000 µM) |  |  | 1 |  |  | 2.4 | CNS(=N)(=O)c1ccc(C(F)(F)F)cc1 (stereo unspecified) |
| 1 | 69 |  | 2.5 |  | < 0.23 | > 2.17 | 2.3 |  |  |  | CCOP(C)(=O)c1ccc(C(F)(F)F)cc1 (stereo unspecified) |
| 0.7 | 56 | 14 (≈ 57.1 µM) | 3.8 | 10 (≈ 40.8 µM) |  |  | 3.7 |  |  |  | CC(C)(C)NC(=O)c1ccc(C(F)(F)F)cc1 |
| 0.7 | 84 | > 59 | 0.1 | 4700 (≈ 17900 µM) |  |  | 1.8 |  |  | 3.8 | O=S1(c2ccc(C(F)(F)F)cc2)=NCCCC1 (stereo unspecified) |
| 0.8 | 78 | > 53 | 1.8 | 24500 (≈ 105000 µM) | < 0.23 | > 2.17 | 1.6 | < 10 | < 10 |  | O=P1(c2ccc(C(F)(F)F)cc2)CCC1 |
| 0.7 | 88 | > 50 | 0.8 | 9100 (≈ 40800 µM) |  |  | 0.9 |  |  | 2.5 | CS(=N)(=O)c1ccc(C(F)(F)F)cc1 (stereo unspecified) |
|  |  | > 46 | 1.7 | 11100 (≈ 53300 µM) |  |  | 1.4 |  |  |  | C[S+]([O-])c1ccc(C(F)(F)F)cc1 (stereo unspecified) |
| 0.7 | 65 | > 65 | 1.4 | > 30000 | < 0.23 | > 2.17 | 1.1 | < 10 | < 10 |  | O=P1(c2ccc(C(F)(F)F)cc2)CCOCC1 |
| 4.9 | 8 | < 1 | 0.5 |  | < 0.23 | > 2.17 | 1.7 |  |  |  | CNC(=O)c1ccc(C(=O)Nc2ccc(C)c(Nc3nccc(-c4cccnc4)n3)c2)cc1 |
| 0.8 | 70 | 49 (≈ 184 µM) | 2.2 | 1200 (≈ 4510 µM) |  |  | 2.9 |  |  |  | CN=S(=O)(c1ccc(C(F)(F)F)cc1)N(C)C (stereo unspecified) |

| Structure (SMILES) | efflux ratio at 2 h [1] | Papp A→B at 2 h [2] [×10⁻⁶ cm/s] | solubility thermodynamic at 24 h [3] [µg/mL] | logD [4] | solubility thermodynamic at 24 h [5] [µg/mL] | hepatic extraction ratio at 1 µM [6] | half-life at 1 µM [7] [h] | logD [8] | degraded at 168 h [9] [%] | Drug degradation [10] [%] | pKb [11] |
| --- | --- | --- | --- | --- | --- | --- | --- | --- | --- | --- | --- |
| CCOP(=O)(OCC)c1ccc(C(F)(F)F)cc1 | 0.6 | 95 | > 61 | 3.4 | 1300 (≈ 4610 µM) | < 0.23 | > 2.17 | 3.2 | < 10 | < 10 |  |
